Reference: PMC12749626, “Expediting hit-to-lead progression in drug discovery through reaction prediction and multi-dimensional optimization” (Nature Communications, 2025)
In brackets after ≈: the same amount, converted by molar mass.

Columns and labels:
[1] = Solubility in 0.05M PO4-; format: physicochemical; settings: for solubility: 0.05 M phosphate buffer, aqueous buffer
[2] = Microsomal clearance, human microsomes
[3] = target: CYP2C9 (Homo sapiens, UniProt P11712); test: Cytochrome P450 inhibition assay, CYP2C9; settings: liver microsomes
[4] = target: CYP2D6 (Homo sapiens, UniProt P10635); test: Cytochrome P450 inhibition assay, CYP2D6; settings: liver microsomes
[5] = target: CYP3A4 (Homo sapiens, UniProt P08684); test: Cytochrome P450 inhibition assay, CYP3A4; settings: liver microsomes
[6] = Hepatocyte clearance; settings: for hepatocyte CLint at 1 µM: human, primary pooled cryopreserved hepatocytes in suspension
[7] = Microsomal clearance, mouse microsomes
[8] = target: T1, human MAGL (Homo sapiens, UniProt Q99685); settings: = pIC50 - cLogP
T1 sequence (Q99685 1-303): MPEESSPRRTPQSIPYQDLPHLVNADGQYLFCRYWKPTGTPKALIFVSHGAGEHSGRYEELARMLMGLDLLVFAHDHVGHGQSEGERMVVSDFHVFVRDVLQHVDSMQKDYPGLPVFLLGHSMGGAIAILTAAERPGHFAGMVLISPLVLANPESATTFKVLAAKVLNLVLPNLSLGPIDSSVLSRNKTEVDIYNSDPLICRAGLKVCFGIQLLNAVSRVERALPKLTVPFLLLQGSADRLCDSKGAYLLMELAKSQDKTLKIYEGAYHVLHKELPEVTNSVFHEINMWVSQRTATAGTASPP

[9] = Parallel Artificial Membrane Permeability (PAMPA); settings: for Papp at 18 h, 150 µM: PAMPA, pH 6; for PAMPA permeability: donor buffer pH 6.0, 18-hour incubation
[10] = target: ABCB1 (MDR1, human P-gp) (Homo sapiens, UniProt P08183); test: P-glycoprotein (P-gp) assay in LLC-PK1 cells transfected with ABCB1; settings: human, LLC-PK1
[11] = Solubility in FESSIF; format: physicochemical

Sequence of CYP2D6 (P10635 whole entry): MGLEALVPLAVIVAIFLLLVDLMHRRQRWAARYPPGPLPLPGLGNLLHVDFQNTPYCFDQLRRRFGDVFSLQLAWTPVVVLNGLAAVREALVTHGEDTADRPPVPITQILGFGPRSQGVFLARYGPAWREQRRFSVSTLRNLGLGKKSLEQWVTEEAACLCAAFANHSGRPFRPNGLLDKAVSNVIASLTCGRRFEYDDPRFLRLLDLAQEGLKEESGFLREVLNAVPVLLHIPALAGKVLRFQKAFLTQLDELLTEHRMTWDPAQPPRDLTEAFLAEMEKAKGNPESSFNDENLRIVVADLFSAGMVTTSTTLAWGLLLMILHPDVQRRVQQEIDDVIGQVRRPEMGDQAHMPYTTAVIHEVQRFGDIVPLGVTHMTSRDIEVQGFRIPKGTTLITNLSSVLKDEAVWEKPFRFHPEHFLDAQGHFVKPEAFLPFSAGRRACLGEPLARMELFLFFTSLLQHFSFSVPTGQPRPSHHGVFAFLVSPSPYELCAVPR
Sequence of ABCB1 (MDR1, human P-gp) (P08183 whole entry): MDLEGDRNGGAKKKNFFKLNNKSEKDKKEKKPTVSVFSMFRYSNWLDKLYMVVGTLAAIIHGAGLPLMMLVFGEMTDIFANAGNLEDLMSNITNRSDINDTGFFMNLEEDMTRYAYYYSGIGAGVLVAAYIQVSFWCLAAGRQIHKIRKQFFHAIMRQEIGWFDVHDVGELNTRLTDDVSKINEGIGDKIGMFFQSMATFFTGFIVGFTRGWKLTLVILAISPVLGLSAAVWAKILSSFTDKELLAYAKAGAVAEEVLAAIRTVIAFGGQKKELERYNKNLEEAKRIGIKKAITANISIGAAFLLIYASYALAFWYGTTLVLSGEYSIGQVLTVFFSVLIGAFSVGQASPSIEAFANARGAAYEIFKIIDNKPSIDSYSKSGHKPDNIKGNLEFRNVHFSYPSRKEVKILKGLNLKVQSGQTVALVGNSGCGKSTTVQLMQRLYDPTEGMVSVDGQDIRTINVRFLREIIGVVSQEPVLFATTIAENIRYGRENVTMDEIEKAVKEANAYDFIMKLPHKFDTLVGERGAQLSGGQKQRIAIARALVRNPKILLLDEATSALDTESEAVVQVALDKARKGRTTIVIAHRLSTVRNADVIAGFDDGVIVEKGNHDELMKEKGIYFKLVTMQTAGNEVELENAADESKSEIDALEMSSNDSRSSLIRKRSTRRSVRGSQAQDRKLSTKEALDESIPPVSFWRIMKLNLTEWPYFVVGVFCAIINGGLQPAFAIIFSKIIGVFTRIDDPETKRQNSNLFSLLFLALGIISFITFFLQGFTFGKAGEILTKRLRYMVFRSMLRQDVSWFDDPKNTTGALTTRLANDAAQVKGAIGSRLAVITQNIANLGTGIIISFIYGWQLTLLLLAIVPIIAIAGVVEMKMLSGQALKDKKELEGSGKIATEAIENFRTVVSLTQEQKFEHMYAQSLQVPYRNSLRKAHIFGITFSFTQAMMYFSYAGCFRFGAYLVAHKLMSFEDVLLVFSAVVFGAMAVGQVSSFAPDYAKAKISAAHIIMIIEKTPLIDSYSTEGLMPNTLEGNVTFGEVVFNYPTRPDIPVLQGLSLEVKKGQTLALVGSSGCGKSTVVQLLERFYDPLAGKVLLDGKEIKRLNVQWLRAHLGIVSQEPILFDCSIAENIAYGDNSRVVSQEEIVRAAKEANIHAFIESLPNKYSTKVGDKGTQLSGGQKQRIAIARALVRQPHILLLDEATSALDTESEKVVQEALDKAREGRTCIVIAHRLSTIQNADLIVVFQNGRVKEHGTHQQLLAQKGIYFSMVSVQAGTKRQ
Sequence of CYP3A4 (P08684 whole entry): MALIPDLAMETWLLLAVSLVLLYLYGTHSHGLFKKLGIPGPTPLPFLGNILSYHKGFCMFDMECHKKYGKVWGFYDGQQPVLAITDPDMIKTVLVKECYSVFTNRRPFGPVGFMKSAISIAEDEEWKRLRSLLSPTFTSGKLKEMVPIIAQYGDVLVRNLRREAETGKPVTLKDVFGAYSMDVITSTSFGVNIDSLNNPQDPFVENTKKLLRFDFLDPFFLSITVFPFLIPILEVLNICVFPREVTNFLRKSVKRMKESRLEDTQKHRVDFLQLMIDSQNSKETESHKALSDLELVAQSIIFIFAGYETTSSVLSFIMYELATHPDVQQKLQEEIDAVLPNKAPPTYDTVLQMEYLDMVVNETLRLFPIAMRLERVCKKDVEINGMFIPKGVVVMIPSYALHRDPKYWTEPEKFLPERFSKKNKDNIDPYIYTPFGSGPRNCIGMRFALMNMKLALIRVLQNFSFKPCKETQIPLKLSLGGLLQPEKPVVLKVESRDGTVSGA
Sequence of CYP2C9 (P11712 whole entry): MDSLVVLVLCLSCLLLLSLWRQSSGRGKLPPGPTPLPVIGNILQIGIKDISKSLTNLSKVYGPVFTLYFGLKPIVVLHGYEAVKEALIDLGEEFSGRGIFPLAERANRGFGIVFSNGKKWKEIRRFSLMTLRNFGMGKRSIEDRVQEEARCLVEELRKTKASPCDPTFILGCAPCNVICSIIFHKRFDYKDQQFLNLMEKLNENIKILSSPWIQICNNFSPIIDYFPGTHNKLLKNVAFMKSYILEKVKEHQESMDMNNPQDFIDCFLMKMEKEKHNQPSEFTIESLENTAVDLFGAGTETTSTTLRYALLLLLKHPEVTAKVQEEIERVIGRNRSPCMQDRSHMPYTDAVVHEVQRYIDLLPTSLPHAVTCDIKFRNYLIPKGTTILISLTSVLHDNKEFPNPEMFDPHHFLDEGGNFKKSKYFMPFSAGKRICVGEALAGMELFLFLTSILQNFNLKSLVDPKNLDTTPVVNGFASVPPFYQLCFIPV

## O=C(c1ccc2nc(-c3cnccc3C3CCCC3)oc2c1)N1CCN(c2nc3ccccc3c(=O)[nH]2)CC1 [Compound 18]
[1]
  solubility: < 0.05 µg/mL
[2]
  microsomal CLint at 1 µM: 853 µL/min/mg
[3]
  CYP2C9 Inhibition: 62%
[4]
  CYP2D6 Inhibition: 45%
[5]
  CYP3A4 Inhibition: > 90%

## O=C(c1ccc2nc(-c3cnc(C4CCCCC4)cc3C3CCCCC3)oc2c1)N1CCN(c2nc3ccccc3c(=O)[nH]2)CC1 [Compound 19]
[1]
  solubility: < 1.1 µg/mL
[6]
  hepatocyte CLint at 1 µM: 4.6 µL/min/1e6 cells
[2]
  microsomal CLint at 1 µM: 17 µL/min/mg
[7]
  microsomal CLint at 1 µM: 47 µL/min/mg
[3]
  CYP2C9 Inhibition: 49%
[4]
  CYP2D6 Inhibition: 23%
[5]
  CYP3A4 Inhibition: 44%

## O=C(c1ccc2nc(-c3ccc(C4(C5CCC5)CC4)nc3)oc2c1)N1CCN(c2nc3ccccc3c(=O)[nH]2)CC1 [Compound 20]
[1]
  Solubility in 0.05M PO4-: < 0.05 µg/mL
[8]
  Lipophilic efficiency (LipE): 2.84
[6]; cryopreserved hepatocytes of human origin, 1 µM compound
  Hepatocyte clearance: 84.2 µL/min/10^6 cells
[3]
  CYP2C9 Inhibition: 24%
[4]
  CYP2D6 Inhibition: 16%
[5]
  CYP3A4 Inhibition: 49%

## O=C(c1ccc2nc(-c3cccnc3C3CCCC3)oc2c1)N1CCN(c2nc3ccccc3c(=O)[nH]2)CC1 [Compound 21]
[1]
  solubility: < 0.05 µg/mL
[6]
  hepatocyte CLint at 1 µM: 47.7 µL/min/1e6 cells
[2]
  microsomal CLint at 1 µM: 53 µL/min/mg
[7]
  microsomal CLint at 1 µM: 114 µL/min/mg
[3]
  CYP2C9 Inhibition: 74%
[4]
  CYP2D6 Inhibition: 41%
[5]
  CYP3A4 Inhibition: 4%
[9]
  Papp at 18 h, 150 µM: 3.7 ×10⁻⁶ cm/s
[10]
  Papp A→B: 10 ×10⁻⁶ cm/s

## O=C(c1ccc2nc(-c3ccc(C4CCCC4)nc3)oc2c1)N1CCN(c2nc3ccccc3c(=O)[nH]2)CC1 [Compound 22]
[1]
  solubility: < 0.05 µg/mL
[6]
  hepatocyte CLint at 1 µM: 104 µL/min/1e6 cells
[2]
  microsomal CLint at 1 µM: 142 µL/min/mg
[3]
  CYP2C9 Inhibition: 23%
[4]
  CYP2D6 Inhibition: 62%
[5]
  CYP3A4 Inhibition: -59%
[9]
  Papp at 18 h, 150 µM: 2.7 ×10⁻⁶ cm/s
[10]
  Papp A→B: 8.1 ×10⁻⁶ cm/s

## O=C(c1ccc2nc(-c3cccnc3C3CCCC3)oc2c1)N1CCN(c2nc3nc(Cl)ccc3o2)CC1 [Compound 24]
[1]
  solubility: < 0.05 µg/mL
[11]
  solubility: 2.5 µg/mL (≈ 4.73 µM)
[6]
  hepatocyte CLint at 1 µM: 42.2 µL/min/1e6 cells
[2]
  microsomal CLint at 1 µM: 69 µL/min/mg
[7]
  microsomal CLint at 1 µM: 61 µL/min/mg
[3]
  CYP2C9 Inhibition: 45%
[4]
  CYP2D6 Inhibition: 26%
[5]
  CYP3A4 Inhibition: 8%
[9]
  Papp at 18 h, 150 µM: 8.5 ×10⁻⁶ cm/s
[10]
  Papp A→B: 9.3 ×10⁻⁶ cm/s

## O=C(c1ccc2nc(-c3cnccc3C3CCNCC3)oc2c1)N1CCN(c2nc3nc(Cl)ccc3o2)CC1.O=CO [Compound 25]
[1]
  solubility: 84 µg/mL
[6]
  hepatocyte CLint at 1 µM: 1 µL/min/1e6 cells
[2]
  microsomal CLint at 1 µM: 10 µL/min/mg
[7]
  microsomal CLint at 1 µM: 10 µL/min/mg
[3]
  CYP2C9 Inhibition: -5%
[4]
  CYP2D6 Inhibition: 34%
[5]
  CYP3A4 Inhibition: 70%
[9]
  Papp at 18 h, 150 µM: 0.02 ×10⁻⁶ cm/s

## O=C(c1ccc2nc(-c3cccnc3C3CCNCC3)oc2c1)N1CCN(c2nc3nc(Cl)ccc3o2)CC1.O=CO [Compound 26]
[1]
  Solubility in 0.05M PO4-: > 590 µg/mL
[3]
  CYP2C9 Inhibition: -23%
[4]
  CYP2D6 Inhibition: 18%
[5]
  CYP3A4 Inhibition: 12%
[9]
  PAMPA permeability: 0.01 10^-6 cm/s

## O=C(c1ccc2nc(-c3cccnc3C3(C4CCC4)CC3)oc2c1)N1CCN(c2nc3nc(Cl)ccc3o2)CC1 [Compound 28]
[8]
  Lipophilic efficiency (LipE): 2.31
[9]
  PAMPA permeability: 5.8 10^-6 cm/s

## O=C(c1ccc2nc(-c3ccc(C4CCCC4)nc3)oc2c1)N1CC2(CC(n3cnc(C4CC4)n3)C2)C1 [Compound 30]
[1]
  solubility: < 0.05 µg/mL
[6]
  hepatocyte CLint at 1 µM: 187 µL/min/1e6 cells
[2]
  microsomal CLint at 1 µM: 563 µL/min/mg
[3]
  CYP2C9 Inhibition: -19%
[4]
  CYP2D6 Inhibition: 3%
[5]
  CYP3A4 Inhibition: -40%
[9]
  Papp at 18 h, 150 µM: 4.4 ×10⁻⁶ cm/s

## O=C(c1ccc2nc(-c3cnccc3C3CCCC3)oc2c1)N1CC(N2CCN(C(=O)c3nccs3)CC2)C1 [Compound 31]
[6]
  hepatocyte CLint at 1 µM: 163 µL/min/1e6 cells
[2]
  microsomal CLint at 1 µM: 431 µL/min/mg
[3]
  CYP2C9 Inhibition: 43%
[4]
  CYP2D6 Inhibition: 22%
[5]
  CYP3A4 Inhibition: > 90%
[9]
  Papp at 18 h, 150 µM: 12.1 ×10⁻⁶ cm/s
[9]; in words, SI2.2, Fig. S1 (PAMPA vs LipE)
  cell permeability: potent cell permeability
